Experimental data from patent US5134156A, “Pharmaceutical composition and method for angiogenesis inhibition” (Zaidan Hojin Biseibutsu Kagaku Kai, priority 1989, dated 1992).

Experiments:
[1] = tested on: angiogenesis in chorio-allantoic membrane (CAM) of the chicken embryo; assay: Inhibition of angiogenesis in chorio-allantoic membrane (CAM) of the chicken embryo in the incubated chicken egg; format: in vivo; settings: for Degree of Inhibition I: number of CAM / Degree of Inhibition II: number of CAM / Degree of Inhibition III: number of CAM / Degree of Inhibition 0: number of CAM: n = 5 tested CAM, 2 days incubation; for Degree of Inhibition I: number of CAM: I-degree: avascular area 2 mm to 4 mm in diameter; for Degree of Inhibition II: number of CAM: II-degree: avascular area 4 mm to 6 mm in diameter; for Degree of Inhibition III: number of CAM: III-degree: avascular area greater than 6 mm in diameter; for Degree of Inhibition 0: number of CAM: zero-degree: avascular area less than 2 mm in diameter
Protocol: (§1) Fertilized chicken eggs were incubated for 4 days, and one hole was then bored by a gimlet at the top of the air chamber of the incubated eggs and another hole was bored at the lower lateral part of the egg. The white of egg (about 2 ml) was removed by suction at the lower hole of the egg. The air within the air chamber was sucked off through the hole bored at the top of the air chamber of the egg so that the eggshell membrane was released from the chorio-allantoic membrane (CAM) of the chicken embryo. The hole at the lower lateral part of the egg was then sealed. A part of the eggshell was then cut off from the top of the air chamber of the egg and a silicone ring having an inner diameter of 3 mm was placed directly on the chorio-allantoic membrane (having a diameter of 1 to 3 mm) in each egg, followed by pouring a solution (10 μl) containing a predetermined amount of actinonin and 1% methylcellulose in physiological saline into the silicone ring. The top of the air chamber of the egg was covered by a cap and the eggs were then further incubated for 2 days in an incubator. After this further incubation for 2 days, intralipid was injected into the CAM and the CAM so treated was photographed for estimation of the development of blood vessels.
Degree of inhibition to the angiogenesis was evaluated in term of the following four scales of zero degree to III-degree, according to the method of Crum et al (see Crum R., Szabo S., and Folkman J.; A new class of steroid inhibits angiogenesis in the presence of heparin or a heparin fragment in the "Science" 230, pp. 1375-1378 (1985)). Thus, the degree of inhibition to angiogenesis were estimated as follows:
Zero-degree . . . The avasuclar area where the blood vessels were not developed has a size of less than 2 mm in its diameter.
I-degree . . . The avascular area has a size of from 2 mm to 4 mm in its diameter.
II-degree . . . The avascular area has a size of from 4 mm to 6 mm in its diameter.
III-degree . . . The avascular area has a size of greater than 6 mm in its diameter.
In Table 1 below, there are shown the estimated degrees of the angiogenesis-inhibiting activity of actinonin at a dose of 10 to 100 μg per CAM.

[2] = tested on: chorio-allantoic membrane; assay: Development/formation of chorio-allantoic membrane in the incubated chicken egg; format: in vivo
Protocol: as §1

[3] = tested on: chicken embryo; assay: Growth of the chicken embryo, visually observed; format: in vivo; settings: 500 μg to 10 μg per CAM
Protocol: as §1

[4] = tested on: mice; assay: Acute toxicity tests in mice by intravenous injection; format: in vivo; settings: 400 mg/kg
[5] = tested on: angiogenesis in chorio-allantoic membrane (CAM) of the chicken embryo; assay: Inhibition of angiogenesis in chorio-allantoic membrane (CAM) of the chicken embryo in the incubated chicken egg; format: in vivo; settings: 500 μg to 10 μg per CAM
[6] = tested on: aminopeptidase M; settings: known from the literature; cited from earlier work
[7] = Kokai No. 15840/86 and U.S. Pat. No. 4,663,342; cited from earlier work
[8] = Kokai No. 4228/87; cited from earlier work
[9] = I.A.M. Symposia on Microbiology, No. 6 and U.S. Pat. No. 3,240,787; cited from earlier work

In the case of `CCCCC[C@H](CC(=O)NO)C(=O)N[C@H](C(=O)N1CCC[C@H]1CO)C(C)C` [actinonin], the “Activity inhibitory to the angiogenesis in CAM” value ([1]; 10 μg/CAM) is reported as “shows a high activity inhibitory to the angiogenesis in CAM”, the “Degree of Inhibition I: number of CAM” value ([1]; 10 μg/CAM) is reported as 2 and the “Degree of Inhibition II: number of CAM” value ([1]; 10 μg/CAM) is reported as 1. The “Degree of Inhibition III: number of CAM” value ([1]; 10 μg/CAM) was 1, the “Degree of Inhibition 0: number of CAM” value ([1]; 10 μg/CAM) was 1 and the “Degree of Inhibition I: number of CAM” value ([1]; 50 μg/CAM) was 1. For the same compound, the “Degree of Inhibition II: number of CAM” value ([1]; 50 μg/CAM) was 2, the “Degree of Inhibition III: number of CAM” value ([1]; 50 μg/CAM) was 1 and the “Degree of Inhibition 0: number of CAM” value ([1]; 50 μg/CAM) was 1. For the same compound, the “Degree of Inhibition I: number of CAM” value ([1]; 100 μg/CAM) was 1, the “Degree of Inhibition II: number of CAM” value ([1]; 100 μg/CAM) was 1 and the “Degree of Inhibition III: number of CAM” value ([1]; 100 μg/CAM) was 1. For the same compound, the “Degree of Inhibition 0: number of CAM” value ([1]; 100 μg/CAM) was 2, the Angiogenesis-inhibiting activity ([1]; doses of 10 to 100 μg per CAM) was “shows an angiogenesis-inhibiting activity” and the “Inhibition to the development of chorio-allantoic membrane” value ([2]; 500 μg to 10 μg per CAM, compared to untreated membranes) was “chorio-allantoic membranes of smaller dimensions as compared to those of the untreated membranes”. For the same compound, the “Inhibition of the formation of chorio-allantoic membrane” value ([2]; conclusion from the CAM test) was “without inhibiting the formation of chorio-allantoic membrane”, the “Growth of the chicken embryo as a whole” value [3] was “it was not found that the growth of the chicken embryo as a whole can be inhibited” and the “Deaths in acute toxicity tests” value [4] was “no deaths”. The “Inhibition of angiogenesis in the chorio-allantoic membrane” value [5] was “can inhibit the angiogenesis”, the “Activity inhibitory to aminopeptidase M” value [6] was “exhibits an activity inhibitory to aminopeptidase M” and the Immunopotentiating effect [7] was “effective as an immunopotentiating agent”. For the same compound, the Analgesic effect [8] was “effective as an analgesic agent” and the Antibacterial activity [9] was “antibacterially active”.
